In publication PMC9333195, “Discovery of 2-Phenylquinoline-4-Carboxylic Acid Derivatives as Novel Histone Deacetylase Inhibitors” (Frontiers in Chemistry, 2022):

Key:
HepG2 = test: CCK-8 antiproliferative assay, HepG2; conditions: Homo sapiens, HepG2, 72 h, read-out: Antiproliferative IC50 HepG2
Description: (§1) The proliferation of cancer cells was tested by CCK-8 assay. Briefly, cells were seeded in a 96-well plate with about 5 × 10^3 cells in each well. In the K652 cell screening, cells were treated with 2.0 μM of tested compounds. […] The light absorbance at 450 nm was measured by using an Opsys microplate reader (Dynex Technologies, Chantilly, VA, United States).

MDA-MB-468 = test: CCK-8 antiproliferative assay, MDA-MB-468; conditions: Homo sapiens, MDA-MB-468, 72 h, read-out: Antiproliferative IC50 MDA-MB-468
Description: (§2) The proliferation of cancer cells was tested by CCK-8 assay. Briefly, cells were seeded in a 96-well plate with about 5 × 10^3 cells in each well. […] The light absorbance at 450 nm was measured by using an Opsys microplate reader (Dynex Technologies, Chantilly, VA, United States).

HDAC2 = HDAC2 (Homo sapiens, UniProt Q92769); test: In vitro HDAC inhibitory assay, recombinant HDAC2
A549 = test: CCK-8 antiproliferative assay, A549; conditions: Homo sapiens, A549, 72 h, read-out: Antiproliferative IC50 A549
Description: as §2

MCF-7 = test: CCK-8 antiproliferative assay, MCF-7; conditions: Homo sapiens, MCF7, 72 h, read-out: Antiproliferative IC50 MCF-7
Description: as §2

A2780 = test: CCK-8 antiproliferative assay, A2780; conditions: Homo sapiens, A2780, 72 h, read-out: Antiproliferative IC50 A2780
Description: as §2

MDA-MB-231 = test: CCK-8 antiproliferative assay, MDA-MB-231; conditions: Homo sapiens, MDA-MB-231, 72 h, read-out: Antiproliferative IC50 MDA-MB-231
Description: as §1

HDAC6 = molecular target: T1, HDAC6 (Homo sapiens, UniProt Q9UBN7); test: In vitro HDAC inhibitory assay, recombinant HDAC6
T1 sequence (Q9UBN7 1-1215): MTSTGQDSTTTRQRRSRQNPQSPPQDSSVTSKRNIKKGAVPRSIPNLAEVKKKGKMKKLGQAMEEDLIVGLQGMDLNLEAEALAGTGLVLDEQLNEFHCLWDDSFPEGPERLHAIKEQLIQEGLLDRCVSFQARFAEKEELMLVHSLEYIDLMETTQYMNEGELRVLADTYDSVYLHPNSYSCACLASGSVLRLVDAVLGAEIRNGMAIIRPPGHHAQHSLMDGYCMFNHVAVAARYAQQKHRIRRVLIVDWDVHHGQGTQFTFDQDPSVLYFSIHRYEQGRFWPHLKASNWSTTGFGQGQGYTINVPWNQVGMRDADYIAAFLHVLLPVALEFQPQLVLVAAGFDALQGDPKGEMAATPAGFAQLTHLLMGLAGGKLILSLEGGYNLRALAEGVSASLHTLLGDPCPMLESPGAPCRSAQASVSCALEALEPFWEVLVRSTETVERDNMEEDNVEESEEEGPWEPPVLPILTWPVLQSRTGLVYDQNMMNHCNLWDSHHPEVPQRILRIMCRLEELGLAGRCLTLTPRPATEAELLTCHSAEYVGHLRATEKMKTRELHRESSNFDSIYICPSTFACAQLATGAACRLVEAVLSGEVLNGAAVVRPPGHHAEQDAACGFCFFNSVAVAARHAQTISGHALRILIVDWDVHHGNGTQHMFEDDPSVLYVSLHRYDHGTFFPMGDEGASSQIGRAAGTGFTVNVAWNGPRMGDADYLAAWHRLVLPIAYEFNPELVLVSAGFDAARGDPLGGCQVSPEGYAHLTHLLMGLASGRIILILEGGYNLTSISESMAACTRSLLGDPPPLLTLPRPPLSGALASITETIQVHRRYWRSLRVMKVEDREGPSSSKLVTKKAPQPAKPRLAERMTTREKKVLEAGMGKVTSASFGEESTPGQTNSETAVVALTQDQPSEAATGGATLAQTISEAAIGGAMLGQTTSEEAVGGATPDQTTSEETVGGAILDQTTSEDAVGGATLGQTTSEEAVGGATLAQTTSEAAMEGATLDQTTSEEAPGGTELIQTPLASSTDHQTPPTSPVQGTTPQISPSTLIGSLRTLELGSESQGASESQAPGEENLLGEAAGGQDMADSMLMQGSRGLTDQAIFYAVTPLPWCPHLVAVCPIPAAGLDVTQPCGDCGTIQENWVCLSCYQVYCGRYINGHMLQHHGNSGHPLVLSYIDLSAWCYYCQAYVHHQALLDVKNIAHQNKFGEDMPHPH

[1] = system: Hela nucleus extract containing a mixture of HDAC isoforms; test: In vitro HDAC inhibitory assay, HeLa cell nuclear extract screening at 2 µM; format: biochemical; conditions: 2.0 µM compound, mean of three experiments
Description: The HDAC enzyme inhibitory activities of synthesized compounds were evaluated against Hela nucleus extract containing a mixture of HDAC isoforms. Percentage inhibitory rate (PIR) was calculated to determine the activity of tested compounds (Table 1).
All HDAC enzymes were purchased from BPS Bioscience. […] The reaction was terminated by adding 100 μl of imaging agent containing trypsin and trichostatin A (TSA). After standing for 20 min, the fluorescence intensity was measured at the excitation and emission wavelengths of 360 and 460 nm with a microplate reader. The inhibition rate was calculated from the fluorescence intensity readings of the test wells relative to the control wells, and the IC50 curve and value were determined by GraphPad Prism 6.0 software.

U937 = test: CCK-8 antiproliferative assay, U937; conditions: Homo sapiens, U-937, 72 h, read-out: Antiproliferative IC50 U937
Description: as §1

HDAC3 = HDAC3 (Homo sapiens, UniProt O15379); test: In vitro HDAC inhibitory assay, recombinant HDAC3
HDAC1 = HDAC1 (Homo sapiens, UniProt Q13547); test: In vitro HDAC inhibitory assay, recombinant HDAC1
Fadu = test: CCK-8 antiproliferative assay, Fadu; conditions: Homo sapiens, 72 h, read-out: Antiproliferative IC50 Fadu
Description: as §1

K562 cells [2] = test: CCK-8 antiproliferative assay, K562; conditions: Homo sapiens; for IC50: K562, 72 h, read-out: Antiproliferative IC50 K562; for inhibition at 2 µM: K562, read-out: K562 percentage inhibitory rate
Description: as §1

U266 = test: CCK-8 antiproliferative assay, U266; conditions: Homo sapiens, U-266, 72 h, read-out: Antiproliferative IC50 U266
Description: as §2

K562 cells [3] = test: Cell apoptosis analysis by flow cytometry (Annexin V-BV421 / 7-AAD); conditions: 24 h, control 1.14%
Description: Cells were incubated with Annexin V-BV421(Becton Dickinson, United States) and 7-AAD (Becton Dickinson, United States) double labeling for 30 min in the dark at room temperature and measured by flow cytometry (FACSAriaIII, Becton Dickinson, United States). The data was analyzed by using Flowjo-V10 software.

K562 cells [4] = test: Cell cycle analysis by flow cytometry (PI staining); format: cell-based; conditions: 24 h; for phase of induced cell cycle arrest: K562 cells, 1 and 2 µM; for G2/M phase ratio of K562 cells: control 3.44%, third value in Figure 3
Description: Deregulation of the cell cycle divided into G0/G1 phase, S phase, and G2/M phase is one of the most frequent alterations during cancer development. Thus, the cell cycle analysis is usually performed in the anticancer evaluation.
After treatment, cells were collected and fixed with 70% pre-cold ethanol in PBS and stored at −20°C overnight. […] Finally, DNA content was measured by flow cytometry (FACSAriaIII, Becton Dickinson, United States). The data was analyzed and fitted by ModFit software.

Sequence of HDAC3 (O15379 whole entry): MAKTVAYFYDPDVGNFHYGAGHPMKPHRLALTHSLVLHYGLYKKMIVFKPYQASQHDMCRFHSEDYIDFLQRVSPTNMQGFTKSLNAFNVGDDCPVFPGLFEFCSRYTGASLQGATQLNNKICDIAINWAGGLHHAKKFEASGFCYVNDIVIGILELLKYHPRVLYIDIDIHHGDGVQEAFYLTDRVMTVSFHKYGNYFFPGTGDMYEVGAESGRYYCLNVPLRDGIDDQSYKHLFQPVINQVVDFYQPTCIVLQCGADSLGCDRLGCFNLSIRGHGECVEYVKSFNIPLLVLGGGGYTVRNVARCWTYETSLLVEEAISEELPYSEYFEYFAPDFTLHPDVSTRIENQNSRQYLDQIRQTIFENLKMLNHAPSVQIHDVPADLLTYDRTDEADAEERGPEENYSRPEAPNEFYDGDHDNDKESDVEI
Sequence of HDAC3 (Q9Y618 395-489 partner limits assumed): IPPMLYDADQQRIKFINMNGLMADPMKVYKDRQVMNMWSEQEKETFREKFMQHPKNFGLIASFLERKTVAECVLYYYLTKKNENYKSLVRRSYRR
Sequence of HDAC2 (Q92769 whole entry): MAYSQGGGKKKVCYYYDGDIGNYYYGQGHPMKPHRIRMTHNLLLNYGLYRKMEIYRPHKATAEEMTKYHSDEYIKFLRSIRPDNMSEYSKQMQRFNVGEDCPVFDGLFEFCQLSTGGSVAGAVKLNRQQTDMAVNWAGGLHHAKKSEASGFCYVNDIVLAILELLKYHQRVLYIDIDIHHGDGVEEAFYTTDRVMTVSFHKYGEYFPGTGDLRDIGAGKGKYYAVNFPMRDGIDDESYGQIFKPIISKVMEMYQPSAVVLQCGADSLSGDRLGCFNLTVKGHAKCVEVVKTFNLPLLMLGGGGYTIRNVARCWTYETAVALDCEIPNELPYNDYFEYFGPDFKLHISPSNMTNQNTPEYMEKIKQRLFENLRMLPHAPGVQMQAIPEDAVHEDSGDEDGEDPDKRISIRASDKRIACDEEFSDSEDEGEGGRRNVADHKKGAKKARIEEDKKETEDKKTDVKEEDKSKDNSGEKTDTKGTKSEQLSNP
Sequence of HDAC1 (Q13547 whole entry): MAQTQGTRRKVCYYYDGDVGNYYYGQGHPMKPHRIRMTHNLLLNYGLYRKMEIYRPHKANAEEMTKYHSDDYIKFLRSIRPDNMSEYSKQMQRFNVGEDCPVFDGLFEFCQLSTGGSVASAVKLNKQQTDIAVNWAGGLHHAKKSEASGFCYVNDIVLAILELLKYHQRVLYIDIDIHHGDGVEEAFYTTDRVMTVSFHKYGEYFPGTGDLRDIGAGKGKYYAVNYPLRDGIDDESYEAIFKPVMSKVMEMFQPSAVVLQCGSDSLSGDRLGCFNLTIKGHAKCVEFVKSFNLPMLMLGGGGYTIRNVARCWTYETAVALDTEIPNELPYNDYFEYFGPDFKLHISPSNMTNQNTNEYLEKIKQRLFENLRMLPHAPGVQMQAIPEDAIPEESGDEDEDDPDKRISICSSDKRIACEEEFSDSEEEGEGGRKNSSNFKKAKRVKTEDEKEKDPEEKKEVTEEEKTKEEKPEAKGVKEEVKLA

SMILES	IC50 (HepG2) [µM]	IC50 (MDA-MB-468) [µM]	IC50 (HDAC2) [µM]	IC50 (A549) [µM]	IC50 (MCF-7) [µM]	IC50 (A2780) [µM]	melting point [°C]	IC50 (MDA-MB-231) [µM]	IC50 (HDAC6) [µM]	HDACs percentage inhibitory rate (PIR) [1] [%]	IC50 (U937) [µM]	IC50 (HDAC3) [µM]	IC50 (HDAC1) [µM]	IC50 (Fadu) [µM]	IC50 (K562 cells [2]) [µM]	inhibition at 2 µM (K562 cells [2]) [%]	IC50 (U266) [µM]	apoptotic cell proportion (apoptotic rate) (K562 cells [3]; K562, 1 μM) [%]	apoptotic cell proportion (apoptotic rate) (K562 cells [3]; K562, 2 μM) [%]	apoptotic cell proportion (apoptotic rate) (K562 cells [3]; K562, 4 μM) [%]	also measured
CCCCNNC(=O)c1ccc(N2CCN(C(=O)c3cc(-c4ccc(-c5ccccc5)cc4)nc4ccccc34)CC2)cc1 [Compound D30, 4-(4-(2-([1,1′-Biphenyl]-4-yl)Quinoline-4-Carbonyl)Piperazin-1-yl)-N′-Butylbenzohydrazide]	> 50	> 50	8.13 ± 0.26	> 50	18.8 ± 1.22	> 50	225.3 to 227.3	> 50	> 1000	69.35 ± 3.44	5.87 ± 0.24	0.1 ± 0.003	1.43 ± 0.02	> 50	7.66 ± 0.25	65.8 ± 2.95	3.68 ± 0.16				
CCCNNC(=O)c1ccc(N2CCN(C(=O)c3cc(-c4ccc(-c5ccccc5)cc4)nc4ccccc34)CC2)cc1 [Compound D29, 4-(4-(2-([1,1′-Biphenyl]-4-yl)Quinoline-4-Carbonyl)Piperazin-1-yl)-N′-Propylbenzohydrazide]	> 50	> 50	184 ± 4.32	> 50	12.6 ± 0.97	> 50	223.3 to 224.2	> 50	> 1000	62.14 ± 2.11	4.22 ± 0.08	0.477 ± 0.01	32.6 ± 1.97	> 50	5.27 ± 0.14	62.4 ± 3.87	2.87 ± 0.11				
O=C(CCCCCCC(=O)Nc1ccccc1)NO [SAHA, Vorinostat, reference compound]	1.87 ± 0.11										1.68 ± 0.03			2.17 ± 0.92	1.55 ± 0.02			1.39	3.36	19.75	phase of induced cell cycle arrest (K562 cells [4]): G0/G1 phase
O=C(NO)c1ccc(N2CCN(C(=O)c3cc(-c4ccc(-c5ccccc5)cc4)nc4ccccc34)CC2)cc1 [Compound D28, 4-(4-(2-([1,1′-Biphenyl]-4-yl)Quinoline-4-Carbonyl)Piperazin-1-yl)-N-Hydroxybenzamide]	2.16 ± 0.13	2.89 ± 0.13	> 1000	2.83 ± 0.17	5.66 ± 0.26	3.86 ± 0.29		4.15 ± 0.22	> 1000	68.00 ± 2.49	1.11 ± 0.03	24.5 ± 1.24		3.22 ± 0.14	1.02 ± 0.01	71.9 ± 2.32	1.08 ± 0.02	10.10	15.53	27.92	G2/M phase ratio of K562 cells (K562 cells [4]; 1 μM): 5.95%; G2/M phase ratio of K562 cells (K562 cells [4]; 2 μM): 32.57%; phase of induced cell cycle arrest (K562 cells [4]): G2/M phase
O=C(NO)c1ccc(N2CCN(C(=O)c3cc(-c4ccc(NC(=O)c5ccccc5)cc4)nc4ccccc34)CC2)cc1 [Compound D19, 4-(4-(2-(4-Benzamidophenyl)Quinoline-4-Carbonyl)Piperazin-1-yl)-N-Hydroxybenzamide]							173.9 to 174.8			45.31 ± 0.68						59.19 ± 0.35					
